Our source for the TD50 and carcinogen call values is PubChem BioAssay AID1745844 (Carcinogenic Potency Database (CPDB), 2022).

Active and inactive are the calls of the source. No rule for the calls is given here.

This series relates to rodent lifetime carcinogenesis bioassay, tumor incidence TD50. Kind of series: carcinogenic potency in animals, long-term in vivo studies, CPDB compilation (AID 1745844).

Usually TD50 stands for the 50% point of the dose-response relation for the toxic effect studied. Turning to `Cn1c(N)nc2c3cccnc3ccc21`, the TD50 was 0.374 mg/kg/day (monkey, strain Cynomolgus [Macaca fascicularis], both sexes, by gavage, site: any site (literature study), lesion: malignant tumor, dosed 485 weeks, study length 485 weeks); 0.374 mg/kg/day (monkey, strain Cynomolgus [Macaca fascicularis], both sexes, by gavage, site: liver, lesion: hepatocellular carcinoma, dosed 485 weeks, study length 485 weeks); 62.4 mg/kg/day (mouse, strain CDF1, females, in feed, site: forestomach, lesion: several types, types named in the paper, dosed 96 weeks, study length 96 weeks); 24.1 mg/kg/day (mouse, strain CDF1, females, in feed, site: liver, lesion: hepatocellular carcinoma, dosed 96 weeks, study length 96 weeks); 17.5 mg/kg/day (mouse, strain CDF1, females, in feed, site: liver, lesion: several types, types named in the paper, dosed 96 weeks, study length 96 weeks); 67.9 mg/kg/day (mouse, strain CDF1, females, in feed, site: lung, lesion: several types, types named in the paper, dosed 96 weeks, study length 96 weeks). The TD50 by setting is: (mouse, strain CDF1, males, in feed, site: forestomach, lesion: several types, types named in the paper, dosed 96 weeks, study length 96 weeks) 42.3 mg/kg/day; (mouse, strain CDF1, males, in feed, site: forestomach, lesion: squamous-cell carcinoma, dosed 96 weeks, study length 96 weeks) 153 mg/kg/day; (mouse, strain CDF1, males, in feed, site: liver, lesion: hepatocellular carcinoma, dosed 96 weeks, study length 96 weeks) 91.6 mg/kg/day; (mouse, strain CDF1, males, in feed, site: liver, lesion: several types, types named in the paper, dosed 96 weeks, study length 96 weeks) 48.6 mg/kg/day; (mouse, strain CDF1, males, in feed, site: lung, lesion: adenocarcinoma, dosed 96 weeks, study length 96 weeks) 60.2 mg/kg/day; (mouse, strain CDF1, males, in feed, site: lung, lesion: several types, types named in the paper, dosed 96 weeks, study length 96 weeks) 22.4 mg/kg/day. The TD50 was 4.38 mg/kg/day (rat, strain F344/DuCrj, females, in feed, site: Zymbal's gland, lesion: squamous-cell carcinoma, dosed 72 weeks, study length 72 weeks); 7.11 mg/kg/day (rat, strain F344/DuCrj, females, in feed, site: clitoral gland, lesion: squamous-cell carcinoma, dosed 72 weeks, study length 72 weeks); 19.3 mg/kg/day (rat, strain F344/DuCrj, females, in feed, site: large intestine, lesion: adenocarcinoma, dosed 72 weeks, study length 72 weeks); 8.24 mg/kg/day (rat, strain F344/DuCrj, females, in feed, site: liver, lesion: hepatocellular carcinoma, dosed 72 weeks, study length 72 weeks); 195 mg/kg/day (rat, strain F344/DuCrj, females, in feed, site: oral cavity, lesion: squamous-cell carcinoma, dosed 72 weeks, study length 72 weeks); 63.2 mg/kg/day (rat, strain F344/DuCrj, females, in feed, site: skin, lesion: squamous-cell carcinoma, dosed 72 weeks, study length 72 weeks). In addition, the TD50 is, setting by setting: (rat, strain F344/DuCrj, females, in feed, site: small intestine, lesion: adenocarcinoma, dosed 72 weeks, study length 72 weeks) 195 mg/kg/day; (rat, strain F344/DuCrj, males, in feed, site: Zymbal's gland, lesion: squamous-cell carcinoma, dosed 55 weeks, study length 55 weeks) 0.999 mg/kg/day; (rat, strain F344/DuCrj, males, in feed, site: large intestine, lesion: adenocarcinoma, dosed 55 weeks, study length 55 weeks) 2.34 mg/kg/day; (rat, strain F344/DuCrj, males, in feed, site: liver, lesion: hepatocellular carcinoma, dosed 55 weeks, study length 55 weeks) 2.08 mg/kg/day; (rat, strain F344/DuCrj, males, in feed, site: oral cavity, lesion: squamous-cell carcinoma, dosed 55 weeks, study length 55 weeks) 44.8 mg/kg/day; (rat, strain F344/DuCrj, males, in feed, site: skin, lesion: squamous-cell carcinoma, dosed 55 weeks, study length 55 weeks) 4.16 mg/kg/day. For the same molecule, the TD50 is 6.45 mg/kg/day (rat, strain F344/DuCrj, males, in feed, site: small intestine, lesion: adenocarcinoma, dosed 55 weeks, study length 55 weeks); 2.26 mg/kg/day (rat, strain Fischer 344, females, in feed, site: Zymbal's gland, lesion: one or several types, types not named, dosed 53 weeks, study length 78 weeks); 5.06 mg/kg/day (rat, strain Fischer 344, females, in feed, site: liver, lesion: hepatocellular carcinoma, dosed 53 weeks, study length 78 weeks); 16.2 mg/kg/day (rat, strain Fischer 344, females, in feed, site: lung, lesion: adenoma, dosed 53 weeks, study length 78 weeks); 3.52 mg/kg/day (rat, strain Fischer 344, females, in feed, site: mammary gland, lesion: one or several types, types not named, dosed 53 weeks, study length 78 weeks); 3.19 mg/kg/day (rat, strain Fischer 344, females, in feed, site: preputial gland, lesion: one or several types, types not named, dosed 53 weeks, study length 78 weeks). For the same molecule, the TD50 is 32.9 mg/kg/day (rat, strain Fischer 344, females, in feed, site: sebaceous gland, lesion: several types, types named in the paper, dosed 53 weeks, study length 78 weeks); 0.287 mg/kg/day (rat, strain Fischer 344, males, by gavage, site: Zymbal's gland, lesion: squamous-cell carcinoma, dosed 35 weeks, study length 52 weeks); 0.287 mg/kg/day (rat, strain Fischer 344, males, by gavage, site: any site (literature study), lesion: several types, types named in the paper, dosed 35 weeks, study length 52 weeks); 0.803 mg/kg/day (rat, strain Fischer 344, males, by gavage, site: colon, lesion: adenocarcinoma, dosed 35 weeks, study length 52 weeks); 0.579 mg/kg/day (rat, strain Fischer 344, males, by gavage, site: liver, lesion: hepatocellular carcinoma, dosed 35 weeks, study length 52 weeks); 0.579 mg/kg/day (rat, strain Fischer 344, males, by gavage, site: skin, lesion: squamous-cell carcinoma, dosed 35 weeks, study length 52 weeks). Also, the TD50 (rat, strain Fischer 344, males, by gavage, site: small intestine, lesion: adenocarcinoma, dosed 35 weeks, study length 52 weeks) was 1.55 mg/kg/day; the TD50 (rat, strain Fischer 344, males, in feed, site: Zymbal's gland, lesion: one or several types, types not named, dosed 53 weeks, study length 63 weeks) is 1.2 mg/kg/day; the TD50 (rat, strain Fischer 344, males, in feed, site: colon, lesion: one or several types, types not named, dosed 53 weeks, study length 63 weeks) worked out at 10.5 mg/kg/day; the TD50 (rat, strain Fischer 344, males, in feed, site: liver, lesion: hepatocellular carcinoma, dosed 53 weeks, study length 63 weeks) came to 10.5 mg/kg/day; the TD50 (rat, strain Fischer 344, males, in feed, site: lung, lesion: several types, types named in the paper, dosed 53 weeks, study length 63 weeks) was found to be 27.1 mg/kg/day; the TD50 (rat, strain Fischer 344, males, in feed, site: preputial gland, lesion: one or several types, types not named, dosed 53 weeks, study length 63 weeks) is 6.87 mg/kg/day. Further, the TD50 (rat, strain Fischer 344, males, in feed, site: sebaceous gland, lesion: several types, types named in the paper, dosed 53 weeks, study length 63 weeks) is 0.998 mg/kg/day.
As for `Cc1cc2ncccc2c2nc(N)n(C)c12`, the TD50 is 50 mg/kg/day (mouse, strain C57BL/6NCrj, females, in feed, site: cecum, lesion: adenocarcinoma, dosed 85 weeks, study length 85 weeks); 92.8 mg/kg/day (mouse, strain C57BL/6NCrj, females, in feed, site: colon, lesion: adenocarcinoma, dosed 85 weeks, study length 85 weeks); 32.3 mg/kg/day (mouse, strain C57BL/6NCrj, females, in feed, site: large intestine, lesion: adenocarcinoma, dosed 85 weeks, study length 85 weeks); 20.7 mg/kg/day (mouse, strain C57BL/6NCrj, females, in feed, site: liver, lesion: fibrosarcoma, dosed 85 weeks, study length 85 weeks); 80 mg/kg/day (mouse, strain C57BL/6NCrj, females, in feed, site: liver, lesion: hepatocellular adenoma, dosed 85 weeks, study length 85 weeks); 62.1 mg/kg/day (mouse, strain C57BL/6NCrj, females, in feed, site: liver, lesion: hepatocellular carcinoma, dosed 85 weeks, study length 85 weeks). Besides, the TD50 is, setting by setting: (mouse, strain CDF1, females, in feed, site: forestomach, lesion: several types, types named in the paper, dosed 91 weeks, study length 91 weeks) 10.7 mg/kg/day; (mouse, strain CDF1, females, in feed, site: forestomach, lesion: squamous-cell carcinoma, dosed 91 weeks, study length 91 weeks) 24.5 mg/kg/day; (mouse, strain CDF1, females, in feed, site: liver, lesion: hepatocellular carcinoma, dosed 91 weeks, study length 91 weeks) 65.6 mg/kg/day; (mouse, strain CDF1, females, in feed, site: liver, lesion: several types, types named in the paper, dosed 91 weeks, study length 91 weeks) 27.1 mg/kg/day; (mouse, strain CDF1, females, in feed, site: lung, lesion: several types, types named in the paper, dosed 91 weeks, study length 91 weeks) 25.1 mg/kg/day (inactive); (mouse, strain CDF1, males, in feed, site: forestomach, lesion: several types, types named in the paper, dosed 91 weeks, study length 91 weeks) 14.5 mg/kg/day. In addition, the TD50 by setting is: (mouse, strain CDF1, males, in feed, site: forestomach, lesion: squamous-cell carcinoma, dosed 91 weeks, study length 91 weeks) 22.4 mg/kg/day; (mouse, strain CDF1, males, in feed, site: lung, lesion: several types, types named in the paper, dosed 91 weeks, study length 91 weeks) 148 mg/kg/day (inactive).
`COC(=O)C1=CCCN(N=O)C1`: the TD50 (rat, strain Fischer 344, males, in drinking water, site: pancreas, exocrine, lesion: acinar-cell adenoma, dosed 128 weeks, study length 128 weeks) was found to be 7.95 mg/kg/day.
For `O=NN1CCCN(N=O)CC1`, the TD50 is 0.253 mg/kg/day (rat, strain Fischer 344, females, in drinking water, site: esophagus, lesion: several types, types named in the paper, dosed 30 weeks, study length 133 weeks); 0.0553 mg/kg/day (rat, strain Fischer 344, females, in drinking water, site: esophagus, lesion: several types, types named in the paper, dosed 60 weeks, study length 82 weeks); 0.105 mg/kg/day (rat, strain Fischer 344, females, in drinking water, site: esophagus, lesion: several types, types named in the paper, dosed 120 weeks, study length 133 weeks); 0.0973 mg/kg/day (rat, strain Fischer 344, females, in drinking water, site: liver, lesion: several types, types named in the paper, dosed 120 weeks, study length 133 weeks); 0.207 mg/kg/day (rat, strain Fischer 344, females, in drinking water, site: nasal cavity, lesion: olfactory carcinoma, dosed 60 weeks, study length 82 weeks); 0.63 mg/kg/day (rat, strain Fischer 344, females, in drinking water, site: tongue, lesion: basal-cell papilloma, dosed 120 weeks, study length 133 weeks). Besides, the TD50 by setting is: (rat, strain Fischer 344, females, in drinking water, site: upper gastrointestinal tract, lesion: carcinoma, dosed 30 weeks, study length 133 weeks) 0.24 mg/kg/day; (rat, strain Fischer 344, females, in drinking water, site: upper gastrointestinal tract, lesion: carcinoma, dosed 60 weeks, study length 82 weeks) 0.0469 mg/kg/day; (rat, strain Fischer 344, females, in drinking water, site: upper gastrointestinal tract, lesion: several types, types named in the paper, dosed 30 weeks, study length 133 weeks) 0.708 mg/kg/day; (rat, strain Fischer 344, females, in drinking water, site: upper gastrointestinal tract, lesion: several types, types named in the paper, dosed 60 weeks, study length 82 weeks) 0.0297 mg/kg/day; (rat, strain Fischer 344, females, in drinking water, site: upper gastrointestinal tract, lesion: several types, types named in the paper, dosed 120 weeks, study length 133 weeks) 0.0914 mg/kg/day. In addition, the carcinogen call (rat, strain Fischer 344, females, in drinking water, site: liver, lesion: several types, types named in the paper, dosed 30 weeks, study length 133 weeks) was “positive” and the carcinogen call (rat, strain Fischer 344, females, in drinking water, site: nasal cavity, lesion: olfactory carcinoma, dosed 30 weeks, study length 133 weeks) is “positive”.
